Test results published in patent publication US20250353858A1, “CONDENSED HETEROCYCLIC COMPOUNDS AS INHIBITOR OF DIACYLGLYCEROL KINASES” (BEONE MEDICINES I GMBH, priority 2023, published 2025).

Tests used:
[1] = target: DGKα (Homo sapiens (Human), UniProt P23743); experiment: Biochemical DGK IC50 assay (ADP-Glo, lipid micelle substrate), DGKα; details: full length DGKα […], ATP 140 μM, DAG 80 μM; also: full length DGKα 7.5 nM
Experimental: (§1) Enzymatic reactions of DGKζ, DGKα and DGKδ were performed using ADP-Glo assay with lipid micelle substrate. […] Full length DGKα (D21-10BG, SignalChem) and full length DGKδ (D23-10G, SignalChem) were purchased. Lipid micelle was prepared by dissolving DAG (Sigma, 317505-10MG) and PS (Sigma, P7769-100MG) with chloroform which was furtherly removed by rotary evaporation. The resulted product was resuspended in buffer containing 25 mM HEPES pH 7.0, 0.5 mM EDTA and 160 mM Octyl β-D glucopyranoside by vigorous mixing and ultrasonic (IID, Scientz).
(§2) The inhibition activities testing for the compound disclosed herein were carried out at room temperature in assay buffer containing 50 mM HEPES, 10 mM MgCl2, 0.01% BSA, 0.1 mM Na3VO4, 0.005% Tween-20 and 0.01 mM CaCl2. Compounds in DMSO were dispensed into wells of a black 384 well plate (Corning 4514) using D300e digital dispenser (Tecan). […] 3 μL 2× enzyme solution was added to wells. […] After 1 hour reaction, 5 μL ADP-Glo reagent (Promga V9101) was added and incubated for 40 minutes. 10 μL Kinase Detection reagent was added and incubated for 30 minutes. Luminescence was measured on a microplate reader (PHERAstar FSX, BMG labtech). The IC50s are calculated based on inhibition of enzyme activity in the presence of increasing concentrations of compounds.

[2] = target: DGKζ (Homo sapiens (Human), UniProt Q13574); experiment: Biochemical DGK IC50 assay (ADP-Glo, lipid micelle substrate), DGKζ; details: full length DGKζ 0.5 nM, ATP 140 μM, DAG 80 μM
Experimental: as §1, §2
Human His-TEV-DGK-zeta-pFastBac1 and human baculovirus samples was generated using the Bac-to-Bac baculovirus expression system (Invitrogen) according to the manufacturer's protocol. The DNA used for expression of DGK-zeta, have SEQ ID Nos: 1. Baculovirus amplification was achieved using infected SF9 cells at 1:2000 virus/cells ratios, and grown for 96 hours at 27° C. post-transfected.
Full length human DGKζ produced as described above, was purified from Sf9 baculovirus-infected insect cell paste. The cells were lysed using sonication method, and the lysates were clarified by centrifugation.

Sequence of DGKζ (Q13574 other isoform, or with tags, fused parts or gaps): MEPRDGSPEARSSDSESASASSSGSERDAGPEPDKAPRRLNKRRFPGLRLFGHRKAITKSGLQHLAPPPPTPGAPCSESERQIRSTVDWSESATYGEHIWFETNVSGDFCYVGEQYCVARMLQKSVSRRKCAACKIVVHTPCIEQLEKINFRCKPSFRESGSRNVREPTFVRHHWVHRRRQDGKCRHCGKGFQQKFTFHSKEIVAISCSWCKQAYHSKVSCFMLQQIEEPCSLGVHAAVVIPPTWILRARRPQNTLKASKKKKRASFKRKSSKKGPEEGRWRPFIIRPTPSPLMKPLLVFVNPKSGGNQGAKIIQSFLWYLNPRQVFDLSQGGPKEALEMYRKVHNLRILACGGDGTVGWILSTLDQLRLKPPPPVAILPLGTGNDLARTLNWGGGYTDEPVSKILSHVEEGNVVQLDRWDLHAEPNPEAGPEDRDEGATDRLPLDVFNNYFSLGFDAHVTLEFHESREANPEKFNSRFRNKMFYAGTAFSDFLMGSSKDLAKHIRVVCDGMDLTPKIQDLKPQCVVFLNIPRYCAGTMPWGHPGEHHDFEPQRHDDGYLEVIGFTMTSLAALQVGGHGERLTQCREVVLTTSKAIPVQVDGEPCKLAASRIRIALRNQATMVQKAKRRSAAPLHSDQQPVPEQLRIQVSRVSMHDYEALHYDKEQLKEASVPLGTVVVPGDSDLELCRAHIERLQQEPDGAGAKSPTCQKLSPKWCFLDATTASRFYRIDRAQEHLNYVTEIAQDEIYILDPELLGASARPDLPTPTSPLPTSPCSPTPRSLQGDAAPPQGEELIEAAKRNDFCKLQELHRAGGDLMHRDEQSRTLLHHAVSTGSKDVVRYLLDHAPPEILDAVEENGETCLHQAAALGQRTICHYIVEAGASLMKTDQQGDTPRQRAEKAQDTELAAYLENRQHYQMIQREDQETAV
Sequence of DGKα (P23743 whole entry): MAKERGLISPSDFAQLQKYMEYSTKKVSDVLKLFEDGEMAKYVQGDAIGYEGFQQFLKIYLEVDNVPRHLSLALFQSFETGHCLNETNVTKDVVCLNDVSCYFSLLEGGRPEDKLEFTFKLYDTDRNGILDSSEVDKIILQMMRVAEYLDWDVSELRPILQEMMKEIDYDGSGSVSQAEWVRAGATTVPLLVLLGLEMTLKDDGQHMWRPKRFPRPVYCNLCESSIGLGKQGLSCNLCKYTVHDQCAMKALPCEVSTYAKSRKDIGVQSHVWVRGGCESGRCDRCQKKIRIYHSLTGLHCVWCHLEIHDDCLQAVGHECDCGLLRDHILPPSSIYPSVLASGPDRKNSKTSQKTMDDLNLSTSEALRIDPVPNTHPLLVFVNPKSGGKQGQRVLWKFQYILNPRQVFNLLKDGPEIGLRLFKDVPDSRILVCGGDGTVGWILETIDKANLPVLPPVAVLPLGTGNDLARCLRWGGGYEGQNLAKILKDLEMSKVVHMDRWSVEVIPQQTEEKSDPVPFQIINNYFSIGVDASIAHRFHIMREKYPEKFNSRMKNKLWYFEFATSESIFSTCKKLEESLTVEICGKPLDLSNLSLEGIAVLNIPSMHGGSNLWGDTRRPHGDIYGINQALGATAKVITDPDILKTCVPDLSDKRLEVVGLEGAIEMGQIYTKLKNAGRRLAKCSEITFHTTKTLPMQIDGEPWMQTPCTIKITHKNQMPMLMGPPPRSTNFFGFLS

IC50 [1]	IC50 [2]	Structure (SMILES)
111 nM	38 nM	CC[C@H]1CN(C(C)c2ccn3nc(Cl)c(F)c3n2)[C@H](CC)CN1c1nc(=O)n(C)c2cc(CC#N)nn12 (stereo partly drawn) [Compound A59, 2-(4-((2S,5R)-4-(1-(2-chloro-3-fluoropyrazolo[1,5-a]pyrimidin-5-yl)ethyl)-2,5-diethylpiperazin-1-yl)-1-methyl-2-oxo-1,2-dihydropyrazolo[1,5-a][1,3,5]triazin-7-yl)acetonitrile]
63 nM	40 nM	CC[C@H]1CN(C(C)c2ccn3nc(F)c(F)c3n2)[C@H](CC)CN1c1nc(=O)n(C)c2cc(CC#N)nn12 (stereo partly drawn) [Compound A60, 2-(4-((2S,5R)-4-(1-(2,3-difluoropyrazolo[1,5-a]pyrimidin-5-yl)ethyl)-2,5-diethylpiperazin-1-yl)-1-methyl-2-oxo-1,2-dihydropyrazolo[1,5-a][1,3,5]triazin-7-yl)acetonitrile]
